Blank lines part the entries; values can stand above or below the compound they belong to. Where a SMILES comes first, the peptide text is derived from it. Bridges are numbered along the chain shown (N, C = ends). [ ]: non-standard residue; d: D form. Aic = NC1(C(=O)O)Cc2ccccc2C1; dOrn = NCCC[C@@H](N)C(=O)O; Orn = NCCC[C@H](N)C(=O)O
Columns and labels:
[1] = target: Somatostatin receptor type 3 (Homo sapiens, UniProt P32745); test: Inhibition of human somatostatin receptor type 3
[2] = target: Somatostatin receptor type 1 (Homo sapiens, UniProt P30872); test: Inhibition of human somatostatin receptor type 1
[3] = target: Somatostatin receptor type 4 (Homo sapiens, UniProt P31391); test: Inhibition of human somatostatin receptor type 4
[4] = target: Somatostatin receptor type 2 (Homo sapiens, UniProt P30874); test: Inhibition of human somatostatin receptor type 2
[5] = target: Somatostatin receptor type 5 (Homo sapiens, UniProt P35346); test: Inhibition of human somatostatin receptor type 5
[6] = target: T1, Delta-type opioid receptor (Homo sapiens, UniProt P41143); test: Binding affinity to delta opioid receptor (unknown origin) assessed as inhibition constant
Mu-type opioid receptor [7] = target: T2, Mu-type opioid receptor (Homo sapiens, UniProt P35372); test: Binding affinity to mu opioid receptor (unknown origin) assessed as inhibition constant
[8] = Inhibition of angiotensin-converting enzyme (unknown origin)
Neprilysin [9] = target: Neprilysin (Homo sapiens, UniProt P08473); test: Inhibition of neutral endopeptidase (unknown origin)
[10] = target: Angiotensin-converting enzyme (Homo sapiens, UniProt P12821); test: Inhibition of angiotensin-converting enzyme (unknown origin)
[11] = target: T3, Angiotensin-converting enzyme (Oryctolagus cuniculus, UniProt P12822); test: Binding affinity to angiotensin-converting enzyme in rabbit lung assessed as inhibition constant; type: tissue-based
T3 sequence (P12822 whole entry): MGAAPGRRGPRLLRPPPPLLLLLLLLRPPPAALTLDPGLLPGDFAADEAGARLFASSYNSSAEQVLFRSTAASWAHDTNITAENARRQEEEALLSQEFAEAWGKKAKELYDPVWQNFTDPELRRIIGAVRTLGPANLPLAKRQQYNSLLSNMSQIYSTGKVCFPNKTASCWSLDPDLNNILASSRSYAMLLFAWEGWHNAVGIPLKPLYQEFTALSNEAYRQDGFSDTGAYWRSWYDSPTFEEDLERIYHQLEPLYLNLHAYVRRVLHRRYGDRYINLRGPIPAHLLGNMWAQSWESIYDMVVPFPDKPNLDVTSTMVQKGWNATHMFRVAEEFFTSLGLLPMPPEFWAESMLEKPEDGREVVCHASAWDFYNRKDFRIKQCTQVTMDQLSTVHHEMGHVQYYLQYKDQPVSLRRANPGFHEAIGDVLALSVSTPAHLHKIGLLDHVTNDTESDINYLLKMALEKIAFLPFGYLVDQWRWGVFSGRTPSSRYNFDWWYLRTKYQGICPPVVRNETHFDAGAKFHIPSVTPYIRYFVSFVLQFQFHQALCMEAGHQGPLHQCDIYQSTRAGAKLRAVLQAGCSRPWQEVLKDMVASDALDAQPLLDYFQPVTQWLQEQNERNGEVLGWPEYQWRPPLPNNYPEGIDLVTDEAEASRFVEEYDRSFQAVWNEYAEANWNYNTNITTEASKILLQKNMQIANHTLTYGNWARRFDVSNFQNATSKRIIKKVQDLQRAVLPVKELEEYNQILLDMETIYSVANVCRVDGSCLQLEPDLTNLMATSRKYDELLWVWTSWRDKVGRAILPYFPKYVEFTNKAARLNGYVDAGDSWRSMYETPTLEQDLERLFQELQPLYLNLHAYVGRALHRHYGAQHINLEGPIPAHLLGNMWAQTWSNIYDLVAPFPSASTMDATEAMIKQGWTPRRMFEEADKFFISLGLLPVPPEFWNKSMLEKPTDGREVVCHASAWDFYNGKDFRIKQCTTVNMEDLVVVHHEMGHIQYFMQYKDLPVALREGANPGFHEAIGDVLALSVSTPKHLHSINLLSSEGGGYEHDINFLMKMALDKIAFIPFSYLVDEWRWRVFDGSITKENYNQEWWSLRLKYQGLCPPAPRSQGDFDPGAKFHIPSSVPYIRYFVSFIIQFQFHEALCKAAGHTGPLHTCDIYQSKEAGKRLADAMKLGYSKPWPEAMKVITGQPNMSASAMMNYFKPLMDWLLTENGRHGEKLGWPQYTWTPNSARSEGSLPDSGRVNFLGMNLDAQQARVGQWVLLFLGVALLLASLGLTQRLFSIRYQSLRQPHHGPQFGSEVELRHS

Neprilysin [12] = target: T4, Neprilysin (Rattus norvegicus, UniProt P07861); test: Binding affinity to rat kidney neutral endopeptidase; type: tissue-based
T4 sequence (P07861 whole entry): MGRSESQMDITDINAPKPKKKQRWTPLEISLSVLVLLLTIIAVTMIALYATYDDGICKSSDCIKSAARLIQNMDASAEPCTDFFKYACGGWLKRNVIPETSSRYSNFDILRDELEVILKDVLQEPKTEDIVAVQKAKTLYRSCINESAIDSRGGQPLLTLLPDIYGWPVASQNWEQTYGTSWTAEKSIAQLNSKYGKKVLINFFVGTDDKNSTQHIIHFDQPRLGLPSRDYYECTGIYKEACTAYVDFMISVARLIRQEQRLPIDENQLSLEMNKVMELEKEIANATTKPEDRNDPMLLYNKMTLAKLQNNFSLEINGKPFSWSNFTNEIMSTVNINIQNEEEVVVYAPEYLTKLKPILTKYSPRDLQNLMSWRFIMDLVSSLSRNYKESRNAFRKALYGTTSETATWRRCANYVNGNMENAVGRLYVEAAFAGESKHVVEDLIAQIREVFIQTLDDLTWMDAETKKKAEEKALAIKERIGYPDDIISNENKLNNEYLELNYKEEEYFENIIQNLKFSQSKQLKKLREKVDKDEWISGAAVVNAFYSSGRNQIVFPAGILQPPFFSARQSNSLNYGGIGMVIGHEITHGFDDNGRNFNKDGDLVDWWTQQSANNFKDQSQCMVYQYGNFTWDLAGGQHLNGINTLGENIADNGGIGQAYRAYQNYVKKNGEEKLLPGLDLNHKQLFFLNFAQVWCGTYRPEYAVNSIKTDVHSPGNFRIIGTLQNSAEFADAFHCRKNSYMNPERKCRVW

[13] = target: T3, Angiotensin-converting enzyme; test: Inhibition of rabbit lung angiotensin-converting enzyme; type: tissue-based
Mus musculus = organism: Mus musculus; test: Inhibition of electrically evoked mouse vas deferens contraction; type: functional
Mu-type opioid receptor [14] = target: T2, Mu-type opioid receptor; test: Inhibition of MOR (unknown origin)
[15] = target: T1, Delta-type opioid receptor; test: Inhibition of DOR (unknown origin)
[16] = target: T5, Somatostatin receptor type 5 (Rattus norvegicus, UniProt P30938); test: Inhibition of rat somatostatin receptor type 5
T5 sequence (P30938 whole entry): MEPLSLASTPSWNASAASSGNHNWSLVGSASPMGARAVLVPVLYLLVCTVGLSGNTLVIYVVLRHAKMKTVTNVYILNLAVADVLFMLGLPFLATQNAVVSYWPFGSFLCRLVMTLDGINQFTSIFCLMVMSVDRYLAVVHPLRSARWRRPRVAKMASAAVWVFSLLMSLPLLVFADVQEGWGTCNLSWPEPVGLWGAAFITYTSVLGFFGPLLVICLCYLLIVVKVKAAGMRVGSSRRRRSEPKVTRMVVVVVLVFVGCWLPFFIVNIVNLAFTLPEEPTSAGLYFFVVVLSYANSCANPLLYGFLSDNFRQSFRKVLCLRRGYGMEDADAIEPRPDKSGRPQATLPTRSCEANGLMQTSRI

Renin = target: T6, Renin (Homo sapiens, UniProt P00797); test: Inhibition of human plasma renin; type: cell-free
T6 sequence (P00797 whole entry): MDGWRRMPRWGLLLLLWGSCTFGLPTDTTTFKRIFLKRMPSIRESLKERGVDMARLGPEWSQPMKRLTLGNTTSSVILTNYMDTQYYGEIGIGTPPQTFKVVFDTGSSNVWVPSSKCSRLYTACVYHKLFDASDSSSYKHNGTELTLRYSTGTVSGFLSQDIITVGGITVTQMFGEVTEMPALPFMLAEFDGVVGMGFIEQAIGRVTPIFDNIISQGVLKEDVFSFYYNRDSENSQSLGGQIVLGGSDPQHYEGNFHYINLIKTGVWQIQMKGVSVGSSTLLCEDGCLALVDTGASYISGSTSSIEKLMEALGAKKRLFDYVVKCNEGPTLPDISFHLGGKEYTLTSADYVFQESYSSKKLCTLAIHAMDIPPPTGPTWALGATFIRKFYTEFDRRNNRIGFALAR

SMILES: CC(=O)N[C@@H](Cc1ccccc1)C(=O)N[C@]1(C)Cc2c([nH]c3ccccc23)CN([C@@H](CCCCN)C(=O)N[C@H](C(N)=O)[C@@H](C)O)C1=O
IC50 [1]: > 1000 nM
IC50 [2]: > 1000 nM
IC50 [3]: > 1000 nM
IC50 [4]: > 1000 nM
IC50 [5]: > 1000 nM

SMILES: NC(=O)[C@@H]1CCC(=O)NCCC[C@H](NC(=O)[C@@H](N)Cc2ccc(O)cc2)C(=O)NC2(Cc3ccccc3C2)C(=O)N1 (H-Y[Orn][Aic]E-NH2; lactam 2-4)
Ki [6]: 209 nM
Ki (Mu-type opioid receptor [7]): 4.21 nM

SMILES: CC(C)[C@H](NC(=O)[C@H](CC(=O)O)NC(=O)C1(NC(=O)[C@@H](C)NC(=O)[C@@H](N)Cc2ccc(O)cc2)Cc2ccccc2C1)C(=O)N[C@H](C(=O)NCC(N)=O)C(C)C (H-Y[dA][Aic]DVVG-NH2)
IC50 (Mus musculus): 0.08 nM
Ki [6]: 4.96 nM

SMILES: CC(=O)N[C@@H](Cc1ccccc1)C(=O)N[C@@H](Cc1c[nH]c2ccccc12)C(=O)N[C@@H](CCCCN)C(=O)N[C@H](C(N)=O)[C@@H](C)O (Ac-FWKT-NH2)
IC50 [1]: > 1000 nM
IC50 [2]: > 1000 nM
IC50 [3]: > 1000 nM
IC50 [4]: > 1000 nM
IC50 [5]: > 1000 nM

SMILES: C[C@@H](NC(=O)[C@@H](N)Cc1ccc(O)cc1)C(=O)N[C@@H](Cc1ccccc1)C(=O)NCC(N)=O (H-Y[dA]FG-NH2)
IC50 (Mu-type opioid receptor [14]): 36.7 nM
IC50 [15]: 1250 nM

SMILES: CC(=O)N[C@@H](Cc1ccccc1)C(=O)N[C@@H]1Cc2c([nH]c3ccccc23)CN([C@@H](CCCCN)C(=O)N[C@H](C(N)=O)[C@@H](C)O)C1=O
IC50 [2]: 253 nM
IC50 [3]: 36 nM
IC50 [16]: 217 nM

SMILES: CCCCNC(=O)[C@@H](C[C@H](O)[C@H](CC1CCCCC1)NC(=O)[C@H](CCCC)NC(=O)[C@H](Cc1ccccc1)NC(C)=O)C(C)C
IC50 (Renin): 0.84 nM

SMILES: NC(=O)[C@@H]1CCC(=O)NCCC[C@@H](NC(=O)[C@@H](N)Cc2ccc(O)cc2)C(=O)N[C@@H](Cc2ccccc2)C(=O)N1 (H-Y[dOrn]FE-NH2; lactam 2-4)
Ki [6]: 3.21 nM
Ki (Mu-type opioid receptor [7]): 0.98 nM

Next, values leading:

IC50 [8]: 14 µM
SMILES: CC(CS)C(=O)N1Cc2ccccc2C1C(=O)O (stereo not drawn)

IC50 (Neprilysin [9]): 2.6 nM
IC50 [10]: 7.8 nM
SMILES: C[C@H](NC(=O)[C@@H](CS)Cc1ccccc1)C(=O)N1c2ccccc2C[C@H]1C(=O)O

Ki [11]: 4.5 nM
Ki (Neprilysin [12]): 0.07 nM
SMILES: O=C(N[C@H]1Cc2ccccc2[C@H]2CCC[C@@H](C(=O)O)N2C1=O)[C@H](S)Cc1ccccc1

IC50 [13]: 5.2 nM
SMILES: O=C(O)[C@H](CCc1ccccc1)N[C@H]1CCc2cccc3c2N(C1=O)[C@H](C(=O)O)C3

IC50 (Neprilysin [9]): 3.9 nM
IC50 [10]: 14 nM
SMILES: C[C@H](NC(=O)[C@@H](CS)Cc1ccccc1)C(=O)N1Cc2ccccc2C[C@H]1C(=O)O

Ki [11]: 0.11 nM
Ki (Neprilysin [12]): 0.08 nM
SMILES: O=C(N[C@H]1Cc2ccccc2[C@H]2CCC[C@@H](C(=O)O)N2C1=O)[C@@H](S)Cc1ccccc1

IC50 [8]: 58 µM
SMILES: CC(CS)C(=O)N1CCc2ccccc2C1C(=O)O (stereo not drawn)
